According to patent US6008222A (Bristol-Myers Squibb Company, priority 1997, dated 1999):
Entries after “also recorded” stand apart in the source; their conditions may differ. Values belong to the compound of their own block, whether it stands above or below them.

How the values were obtained:
[1] = human, in vivo
[2] = test system: antidepressant effect; conditions: co-administered with an antidepressant drug regimen such as fluoxetine; cited from earlier work
[3] = test system: patients undergoing diazepam-withdrawal; conditions: human, in vivo; cited from earlier work
[4] = test system: anxiety disorders and depression; conditions: U.S. Pat. No. 3,717,634; cited from earlier work
[5] = clinical; conditions: human, in vivo, po
[6] = in vivo, cited from earlier work
[7] = six subject pharmacokinetic study: buspirone and 1-PP blood levels following seven days of drug administration
[8] = test system: anxiolytic activity; conditions: cited from earlier work
[9] = test system: diazepam-withdrawn animals; conditions: cited from earlier work
[10] = test system: diazepam-naive subjects; conditions: previous studies; cited from earlier work
[11] = test system: rat; conditions: systemic administration of 1-PP; cited from earlier work
[12] = human, in vivo; cited from earlier work
[13] = test system: cytochrome P4503A4; conditions: cited from earlier work
[14] = test system: cytochrome P4503A3/4; conditions: J. Clin. Psychiatry, 57:7, July 1996; cited from earlier work
[15] = J. Clin. Psychiatry, 57:7, July 1996; cited from earlier work

- intra- and inter-patient variations in blood levels [1]: reduced
- AUC(0-t) at […] [5]: 29.4 ± 9.9 ng·h/mL
- Cmax at […] [5]: 8 ± 3.3 ng/mL
- Tmax at […] [5]: 1 h
- half-life at […] ([5]; T1/2 of buspirone): 156 ± 108 min
- disappearance of buspirone ([7]; concurrent administration of nefazodone): delayed
SMILES: O=C1CC2(CCCC2)CC(=O)N1CCCCN1CCN(c2ncccn2)CC1 [Buspirone, 8-[4-[4-(2-pyrimidinyl)1-piperazinyl]butyl]-8-azaspiro(4,5)-decane,7,9-dione]
- augmentation of an antidepressant effect [2]: effective
- treatment of patients undergoing diazepam-withdrawal [3]: failed to adequately treat
- effectiveness for the treatment of anxiety disorders and depression [4]: effective
- absorption ([6]; po): rapidly absorbed

SMILES: c1cnc(N2CCNCC2)nc1 [1-PP, 1-(2-pyrimidinyl)-piperazine]
- intra- and inter-patient variations in blood levels [1]: reduced
- anxiolytic activity ([8]; certain tests / earlier animal testing): (weak) antianxiety activity; also recorded: weak anxiolytic activity
- antagonism of the anxiolytic and/or antidepressant action of buspirone ([8]; other tests): antagonizes the desired anxiolytic and/or antidepressant action of buspirone
- effect in social interaction paradigms [9]: anxiogenic effect
- effect on social interaction [10]: not shown any effect
- antagonism of intracerebral buspirone activity [11]: could be blocked
- plasma levels of 1-PP [6]: much higher plasma levels
- association of high 1-PP levels with undesired or adverse events [12]: associated with the occurrence of undesired or adverse events

SMILES: CCc1nn(CCCN2CCN(c3cccc(Cl)c3)CC2)c(=O)n1CCOc1ccccc1 [Nefazodone]
- inhibition of cytochrome P4503A4 [13]: an inhibitor
- inhibition of cytochrome P4503A3/4 [14]: inhibition
- effect on concentration and toxicity of alprazolam and triazolam [15]: increasing the concentration and toxicity of alprazolam and triazolam
- inhibition of buspirone metabolism ([7]; in the presence of nefazodone, preliminary study data): marked inhibition of buspirone metabolism
